Measured values as given in paper PMC6354023, “A phase I study of the HDM2 antagonist SAR405838 combined with the MEK inhibitor pimasertib in patients with advanced solid tumours” (British Journal of Cancer, 2018).
Where two headings read alike, the source gives them in different places.

Assays:
[1] = Safety assessments: adverse events (NCI-CTCAE v4.03), laboratory abnormalities; type: in vivo, human; settings: of 26 treated patients, in combination
Experimental: Safety was assessed by the evaluation of AEs, DLTs, changes in vital signs, ECOG PS, physical examinations,12-lead electrocardiograms, determination of LVEF, ophthalmological examinations and clinical laboratory tests (including haematology, coagulation, blood chemistry and urinalysis).

[2] = Pharmacokinetics of SAR405838 (whole-blood concentrations) in combination; type: in vivo, human; settings: for AUC(0-t) / Cmax / half-life / Tmax: human, whole blood, oral; for AUC(0-t): read-out: SAR405838 AUC0–24, mean ± SD; for Cmax: read-out: SAR405838 Cmax, mean ± SD; for half-life: read-out: SAR405838 t1/2 (converted); for Tmax: read-out: SAR405838 tmax, median (range)
Excerpt: Blood samples were collected on Days 1 (for pimasertib only), 2, 3, 8 and 15 of Cycle 1, on Days 1 and 2 of Cycle 2, and on Day 1 of Cycles 3 and 4, to determine the whole-blood and plasma concentrations of SAR405838 and pimasertib, respectively.

[3] = cited from earlier work
MIC-1 = MIC-1 levels in plasma by ELISA; type: in vivo, human
Experimental: MIC-1 protein concentrations were measured in plasma samples using an analytically validated enzyme-linked immunosorbent assay (Quantikine® Human GDF-15 immunoassay). pERK levels were determined by evaluating median value changes in response to ex vivo stimulation with or without phorbol myristate acetate (PMA) over time in whole-blood samples (CD 45^+ and lymphocyte populations) by flow cytometry (BD FACSCanto™ II instrument). Stimulated pERK levels were calculated as percentage (PMA-dimethylsulphoxide [DMSO])/DMSO).

[4] = DL1 SAR405838 200 mg QD + pimasertib 45 mg BID, C1D2
[5] = DL1 SAR405838 200 mg QD + pimasertib 45 mg BID, C2D1
[6] = DL2a SAR405838 200 mg QD + pimasertib 60 mg QD, C1D2
[7] = DL2a SAR405838 200 mg QD + pimasertib 60 mg QD, C2D1
[8] = DL2b SAR405838 300 mg QD + pimasertib 45 mg BID, C1D2
[9] = DL2b SAR405838 300 mg QD + pimasertib 45 mg BID, C2D1
[10] = DL3a SAR405838 300 mg QD + pimasertib 60 mg QD, C1D2
[11] = DL3a SAR405838 300 mg QD + pimasertib 60 mg QD, C2D1

**Q.** For `CC(C)(C)C[C@@H]1N[C@@H](C(=O)N[C@H]2CC[C@H](O)CC2)[C@H](c2cccc(Cl)c2F)[C@]12C(=O)Nc1cc(Cl)ccc12` [SAR405838], which “Patients with dose modification, reduction or omission” value [1] is on record?
**A.** 17 patients

**Q.** And the “PK in combination compared with PK as monotherapy” value ([2]; SAR405838 and pimasertib administered in combination)?
**A.** similar

**Q.** And the “Exposure change with dose increase (50%)” value ([2]; between DL1/DL2a (SAR405838 200 mg) and DL2b/DL3a (SAR405838 300 mg))?
**A.** did not result in SAR405838 exposure increase

**Q.** And the AUC(0-t) [2, 4]?
**A.** 19300 ng·h/mL

**Q.** What about the Cmax [2, 4] of the same molecule?
**A.** 1570 ± 876 ng/mL

**Q.** And the half-life [2, 4]?
**A.** 16.1 ± 7.75 h

**Q.** What about the Tmax [2, 4] of the same molecule?
**A.** 2 h

**Q.** What about the AUC(0-t) [2, 5] of the same molecule?
**A.** 14600 ng·h/mL

**Q.** And the Cmax [2, 5]?
**A.** 1250 ± 668 ng/mL

**Q.** What about the half-life [2, 5] of the same molecule?
**A.** 10.8 h

**Q.** And the Tmax [2, 5]?
**A.** 1.8 h

**Q.** What about the AUC(0-t) [2, 6] of the same molecule?
**A.** 20800 ng·h/mL

**Q.** What about the Cmax [2, 6] of the same molecule?
**A.** 1500 ± 634 ng/mL

**Q.** What about the half-life [2, 6] of the same molecule?
**A.** 8.86 h

**Q.** And the Tmax [2, 6]?
**A.** 2 h

**Q.** And the AUC(0-t) [2, 7]?
**A.** 15600 ng·h/mL

**Q.** What about the Cmax [2, 7] of the same molecule?
**A.** 1050 ± 581 ng/mL

**Q.** And the half-life [2, 7]?
**A.** 10 h

**Q.** And the Tmax [2, 7]?
**A.** 2.8 h

**Q.** And the AUC(0-t) [2, 8]?
**A.** 16300 ng·h/mL

**Q.** What about the Cmax [2, 8] of the same molecule?
**A.** 1100 ± 547 ng/mL

**Q.** And the half-life [2, 8]?
**A.** 15.5 ± 4.33 h

**Q.** And the Tmax [2, 8]?
**A.** 3 h

**Q.** What about the AUC(0-t) [2, 9] of the same molecule?
**A.** 15000 ng·h/mL

**Q.** And the Cmax [2, 9]?
**A.** 1100 ± 361 ng/mL

**Q.** What about the half-life [2, 9] of the same molecule?
**A.** 13.4 ± 2.38 h

**Q.** What about the Tmax [2, 9] of the same molecule?
**A.** 1.5 h

**Q.** And the AUC(0-t) [2, 10]?
**A.** 21400 ng·h/mL

**Q.** What about the Cmax [2, 10] of the same molecule?
**A.** 1490 ± 939 ng/mL

**Q.** And the half-life [2, 10]?
**A.** 13.3 ± 4.94 h

**Q.** What about the Tmax [2, 10] of the same molecule?
**A.** 4 h

**Q.** What about the AUC(0-t) [2, 11] of the same molecule?
**A.** 21200 ng·h/mL

**Q.** What about the Cmax [2, 11] of the same molecule?
**A.** 1440 ± 583 ng/mL

**Q.** What about the half-life [2, 11] of the same molecule?
**A.** 14.9 ± 11.1 h

**Q.** What about the Tmax [2, 11] of the same molecule?
**A.** 2 h

**Q.** And the “Main dose-limiting toxicity, monotherapy” value [3]?
**A.** thrombocytopenia

**Q.** And the “MTD and recommended phase II dose, monotherapy” value ([3]; once daily (QD))?
**A.** 300 mg

**Q.** And the “Time of peak MIC-1 elevation” value (MIC-1; C1D2 and C2D1)?
**A.** 6 h

**Q.** And the “Greatest increase in MIC-1 in the DL1 cohort” value (MIC-1; patient with confirmed PR (endometrial tumour))?
**A.** 8.8 fold

**Q.** What about the “MIC-1 elevation, mean vs baseline” value (MIC-1; plasma, all patients at C1D2 and C2D1) of the same molecule?
**A.** 3.5+ /− 0.8 fold
